Reference: the NIST ThermoML archive (doi:10.1016/j.jct.2013.10.005)
± gives the expanded uncertainty stated by the source.

Conditions: 298 K; 101.33 kPa; Crystal; X-ray diffraction

mass density: 1969 ± 10 kg/m3
Structure (SMILES): O.O.O.O.O=C([O-])[C@H](O)[C@@H](O)[C@H](O)[C@H](O)CO.O=C([O-])[C@H](O)[C@@H](O)[C@H](O)[C@H](O)CO.[Ba+2] [barium D-gluconate tetrahydrate]
